{
  "source": "patent US20100086483A1",
  "about": "“METHOD OF MULTIDETECTOR COMPUTED TOMAGRAPHY” (Gilead Palo Alto, Inc., priority 2008, published 2010)",
  "tested_on": "conscious dogs",
  "experiment": "Effects of regadenoson on HR and CBF before and after metoprolol in conscious dogs",
  "type": "in vivo, dog",
  "details": "for Reg-induced tachycardia after metoprolol, % of control: metoprolol 1.5 mg/kg IV; for reduction of Reg-induced coronary vasodilation from control: metoprolol 1.5 mg/kg",
  "protocol": "Five mongrel dogs were chronically instrumented for measurements of systemic hemodynamics and coronary blood flow (CBF). The effects of regadenoson (1, 2.5 and 5 μg/kg, IV) on HR and CBF were assessed before and after administration of the β1-adrenergic receptor blocker metoprolol (1.5 mg/kg). Values of peak CBF and the duration of the two-fold increase in CBF above baseline were used to assess Reg-induced coronary vasodilation.",
  "data": [
    {"smiles": "COCCc1ccc(OCC(O)CNC(C)C)cc1", "note": "(stereo not drawn) [metoprolol]", "values": [
      {"measurement": "Reg-induced tachycardia after metoprolol, % of control", "setting": "Reg 1 μg/kg IV", "value": "55±12 % of control"},
      {"measurement": "Reg-induced tachycardia after metoprolol, % of control", "setting": "Reg 2.5 μg/kg IV", "value": "54±7 % of control"},
      {"measurement": "Reg-induced tachycardia after metoprolol, % of control", "setting": "Reg 5 μg/kg IV", "value": "45±4 % of control"},
      {"measurement": "reduction of Reg-induced coronary vasodilation from control", "setting": "Reg 1 μg/kg IV", "value": "11±7", "unit": "%"},
      {"measurement": "reduction of Reg-induced coronary vasodilation from control", "setting": "Reg 2.5 μg/kg IV", "value": "10±4", "unit": "%"},
      {"measurement": "reduction of Reg-induced coronary vasodilation from control", "setting": "Reg 5 μg/kg IV", "value": "21±2", "unit": "%"}
    ]}
  ]
}
